Source: US20160038454A1, “INTRAVENOUS FORMULATIONS OF […] AS IMMUNOMODULATORS AND […] AGENTS” (priority 2013, published 2016)
Values after ≈ are worked out from the molar mass of the structure shown. “Also recorded” adds a separate entry of the source.

Key:
[1] = tested on: IL-2 production by Jurkat cells; assay: cells; assay type: cell-based, human
Method: Test samples can be diluted to 1 mM in complete tissue culture medium. Aliquots are placed in microculture plates coated with anti-CD3 antibody (used to stimulate the production of IL-2 by Jurkat cells), and serial dilutions are prepared so that the final concentration encompass the range of 0.001 to 10,000 nM in log increments. Cells from an exponentially expanding culture of Jurkat human T cell line (#TIB-152 obtained from American Type Culture Collection, Manassas, Va.) are harvested, washed once by centrifugation, re-suspended in complete tissue culture medium, and diluted to a concentration of 2×10^6 cells/ml. A volume of 50 μl of Jurkat cells (1×10^5 cells) is added to wells containing 100 μl of the diluted compounds, 50 μl of PMA (10 ng/ml) is added to each well, and the plates are incubated at 37° C. in a 5% CO2 incubator. After 24 hours, the plates are centrifuged to pellet the cells, 150 μl of supernatant is removed from each well, and the samples are stored at −20° C. The stored supernatants are analyzed for human IL-2 concentration using the Luminex 100 (Luminex Corporation, Austin, Tex.), Luminex microspheres coupled with anti-IL-2 capture antibody, and fluorochrome-coupled anti-IL-2 detection antibody. The data are expressed as pg/ml of IL-2.

[2] = Conversion to triptolide using human serum; assay type: in vitro ADME
Text: (Xia Zhi Lin and Zhen You Lan, Haematologica, 93:14 (2008)).

rodents = assay: Rodent toxicology study, intravenous, seven days; assay type: in vivo
Method: (§1) Triptolide prodrugs are generally believed to be safer than triptolide. […] Triptolide prodrugs as an emulsion formulation are believed to have a toxicokinetic profile characterized by a flat AUC with a minimized Cmax. [In conjunction, it was postulated that a sustained inhibition of RNA polymerase is needed for optimum efficacy which in turn requires a pharmcokinetic profile of constant exposure to drug]. […] The no effect dose (“NOAEL”) of PG796(MRx102) again exceeded 1.5 mg/kg/day intravenously for seven days in rodents confirming the initial results. It is interesting to ask why a prodrug of triptolide would be safer than the natural product itself; while not wishing to be bound by theory, perhaps the answer lies in the pharmacokinetic profile of triptolide administered either directly or released from its carrier, PG796(MRx102). […] It also remained above the therapeutic levels (shown as a thick line without symbols). The difference in the Cmax/AUC profile of PG796(MRx102) vs. triptolide is believed to be due to the physiochemical properties of the lipid prodrug/emulsion formulation combination. In general, triptolide prodrugs having a cLogP greater than 0.5 are more lipid-soluble than water soluble and are expected to take longer to convert to the drug form; such characteristics may yield a flatter conversion profile and less of a drug-release Cmax spike.

[3] = Rodent toxicology study, intravenous, seven days; assay type: in vivo, rodents; conditions: in vivo, iv; intravenously for seven days in rodents; read-out: no effect dose (NOAEL)
Method: as §1

[4] = tested on: bulk, CD34(+) progenitor and CD34(+)CD38(−) stem/progenitor cells from AML patients; conditions: low nanomolar concentrations; also in coculture with mesenchymal stromal cells; Carter et al. 2012; cited from earlier work
NF-κB, Mcl-1 and XIAP = conditions: cited from earlier work
[5] = TK: plasma triptolide levels, Calvert study (emulsion); assay type: in vivo, rodents; conditions: FIG. 1
Method: as §1
TK comparison of triptolide levels in Calvert and SRI studies—Males and Females

[6] = PG796(MRx102) solubility in emulsion formulations; assay type: physicochemical; conditions: emulsion formulation, aqueous with cosolvent or surfactant or cyclodextrin
Method: Various ratios of the nonionic surfactants polysorbate 80 (a.k.a. Tween 80) and Span 80 were explored, and a formulation was prepared and tested as follows. […] The results of this preliminary experiment were encouraging in that a reasonably high solubility was obtained in a formulation containing almost 70% water.
Emulsion formulations were prepared using a probe sonicator to disperse the oil phase in the aqueous phase to form a creamy opaque suspension.
Typical emulsion formulations consist of 10-30% triglyceride, most commonly SBO, dispersed with 0.5-2% phospholipids in an aqueous phase, which contains glycerin as a tonicity agent. […] Additionally, PEG-400 and ethanol were incorporated into some of the formulations to decrease the polarity of the aqueous phase to enhance solubility. Sodium cholate was included in some formulations as a co-surfactant. Solubility of at least 1 mg/mL was obtained in all of the formulations. In each case some loss of potency was observed after eight days of storage, but the majority of the original potency was maintained.
Pharmaceutical emulsions are typically prepared at neutral to slightly alkaline pH since they are stabilized by electrostatic repulsion between droplets imparted by pH-sensitive anionic surfactants, such as phosphatidyl ethanolamine, free fatty acid salts, and cholate. However, it was possible that this pH range could be suboptimal for the chemical stability of PG796(MRx102). To test this, emulsions were prepared at different pH values ranging from 4 to 8. Buffers were included to control the pH, and the non-pH sensitive surfactant, sodium dodecyl sulfate was used in place of sodium cholate to assure a negative charge even in the low pH emulsions. All of the formulations were reasonably stable for up to 2 weeks at room temperature. […]

Ba/F3-ITD cells = conditions: mice harboring Ba/F3-ITD cells; Carter et al. 2012; cited from earlier work
[7] = emulsion target pH 4.0 (acetate)
[8] = emulsion target pH 5.0 (acetate)
[9] = emulsion target pH 6.0 (histidine)
[10] = emulsion target pH 7.0 (phosphate)

CC(C)[C@]12O[C@H]1[C@@H]1O[C@]13[C@]1(O[C@H]1C[C@H]1c4c(C(=O)c5ccccc5)oc(OC(=O)c5ccccc5)c4CC[C@@]13C)[C@@H]2O [PG796, 18-deoxo-19-dehydro-18-benzoyloxy-19-benzoyl triptolide]
IL-2 inhibition (in words) ([1]; Jurkat cells, comparison with triptolide or PG490-88): inhibited IL-2 production; also recorded: higher level of activity
activity in IL-2 inhibition assay after incubation in human serum vs mouse serum ([1]; incubated in human serum compared with mouse serum): high, and essentially equivalent, activity
conversion to triptolide in human serum [2]: rapidly and completely converted
gross or histopathologic toxic effects (rodents; intravenous doses up to 1.5 mg/kg/day for seven days, initial rodent toxicology study): no gross or histopathologic toxic effects
toxicity relative to triptolide (times less toxic) (rodents; intravenous, emulsion formulation, rodents, gross and histopathologic criteria): at least 20 times
NOAEL at 7 days [3]: > 1.5 mg/kg/day
apoptosis in cells from AML patients [4]: induced apoptosis
effect on mRNA levels, NF-κB, Mcl-1 and XIAP (NF-κB, Mcl-1 and XIAP): reduced mRNA levels, reduced NF-κB and reduced Mcl-1 and XIAP
triptolide Cmax after prodrug relative to triptolide administered directly ([5]; intravenous, emulsion): approximately one-tenth
triptolide blood levels over time ([5]; prodrug administered): remained relatively constant
solubility at 0 hr [6, 7]: 870 µg/mL (≈ 1530 µM)
solubility at 1 wk [6, 7]: 1000 µg/mL (≈ 1760 µM)
solubility at 2 wk [6, 7]: 848 µg/mL (≈ 1490 µM)
solubility at 24 hr [6, 7]: 917 µg/mL (≈ 1610 µM)
solubility at 0 hr [6, 8]: 1010 µg/mL (≈ 1770 µM)
solubility at 1 wk [6, 8]: 972 µg/mL (≈ 1710 µM)
solubility at 2 wk [6, 8]: 910 µg/mL (≈ 1600 µM)
solubility at 24 hr [6, 8]: 922 µg/mL (≈ 1620 µM)
solubility at 0 hr [6, 9]: 1090 µg/mL (≈ 1920 µM)
solubility at 1 wk [6, 9]: 948 µg/mL (≈ 1670 µM)
solubility at 2 wk [6, 9]: 850 µg/mL (≈ 1490 µM)
solubility at 24 hr [6, 9]: 890 µg/mL (≈ 1570 µM)
solubility at 0 hr [6, 10]: 996 µg/mL (≈ 1750 µM)
solubility at 1 wk [6, 10]: 760 µg/mL (≈ 1340 µM)
solubility at 2 wk [6, 10]: 822 µg/mL (≈ 1450 µM)
solubility at 24 hr [6, 10]: 849 µg/mL (≈ 1490 µM)
solubility at 0 hr ([6]; emulsion target pH 8.0 (Tris)): 929 µg/mL (≈ 1630 µM)
solubility at 1 wk ([6]; emulsion target pH 8.0 (Tris)): 1040 µg/mL (≈ 1830 µM)
solubility at 2 wk ([6]; emulsion target pH 8.0 (Tris)): 930 µg/mL (≈ 1640 µM)
solubility at 24 hr ([6]; emulsion target pH 8.0 (Tris)): 929 µg/mL (≈ 1630 µM)
solubility ([6]; preliminary emulsion: 29.4% GTO, 1.65% Span 80, 0.31% Tween 80, 68.6% water): 681 µg/mL (≈ 1200 µM)
leukemia burden (Ba/F3-ITD cells): greatly decreased
survival time (Ba/F3-ITD cells): increased
